In assay [1] the target is T1, DYRK1A (Homo sapiens, UniProt Q13627). Nature of the assay: KdELECT Kinase Assay Panel (Eurofins) binding affinity. Particulars: read-out: DYRK1A Kd, duplicate 11-point dose-response curves.
Protocol: (§1) KDs were obtained from Eurofins. The KdELECT Kinase Assay Panel enables quantitated compound binding affinity against any kinase assay. Inhibitor binding constants (Kd values) are calculated from duplicate 11-point dose-response curves. Measurements are made under optimized conditions that generate true thermodynamic Kd values which facilitate direct comparison of inhibitor affinity across kinases.
In another assay the test system is WNT signaling. Nature of the assay: WNT reporter assay (TopGFP reporter). Particulars: Human Colonic Epithelial Cells (HCEC) with TopGFP reporter, stimulated with 10 μM CHIR99021, 24 hours. It is filed as cell-based. From the text:
KDs were obtained from Eurofins.

Assay [2] addresses T1, DYRK1A. Nature of the assay: biochemical.
Protocol: as §1

Take “1-(5-(4-(6-(2-aminopyridin-4-yl)quinazolin-4-yl)-2-fluorophenyl)hexahydropyrrolo[3,4-c]pyrrol-2(1H)-yl)ethan-1-one [Compound 46]”: the Kd on DYRK1A [1] was less than 100 nM.
For `Nc1cc(-c2ccc3ncnc(-c4ccc(N5C[C@@H]6C[C@H]5CO6)c(F)c4)c3c2)ccn1` [Compound 29, 4-(4-(4-((1S,4S)-2-oxa-5-azabicyclo[2.2.1]heptan-5-yl)-3-fluorophenyl)quinazolin-6-yl)pyridin-2-amine], in the assay with WNT signaling, the EC50 is 100 to 1000 nM. Further, the Kd on DYRK1A [2] was less than 100 nM.
For `Nc1cc(-c2ccc3ncnc(-c4cnc(N5CCC6(CCNC6=O)CC5)c(F)c4)c3c2)ccn1` [Compound 30, 8-(5-(6-(2-aminopyridin-4-yl)quinazolin-4-yl)-3-fluoropyridin-2-yl)-2,8-diazaspiro[4.5]decan-1-one], the EC50 in the assay with WNT signaling is 100 to 1000 nM. The Kd on DYRK1A [2] is less than 100 nM.
The compound `CN1CCN(c2c(F)cc(-c3ncnc4ccc(-c5ccnc(N)c5)cc34)cc2F)CC1` [Compound 31, 4-(4-(3,5-difluoro-4-(4-methylpiperazin-1-yl)phenyl)quinazolin-6-yl)pyridin-2-amine] yielded an EC50 in the assay on WNT signaling of 100 to 1000 nM. Further, the Kd on DYRK1A [2] is less than 100 nM.
The matching figures for `Nc1cc(-c2ccc3nccc(-c4ccc(N5CCOCC5)c(F)c4)c3c2)ccn1` [Compound 32, 4-(4-(3-fluoro-4-morpholinophenyl)quinolin-6-yl)pyridin-2-amine]: 100 to 1000 nM and less than 100 nM.
Regarding `Fc1cc(-c2ncnc3ccc(-c4c[nH]c5ncccc45)cc23)ccc1N1CCNCC1` [Compound 33, 4-(3-fluoro-4-(piperazin-1-yl)phenyl)-6-(1H-pyrrolo[2,3-b]pyridin-3-yl)quinazoline], the EC50 in the assay on WNT signaling lay within 100 to 1000 nM. For the same compound, the Kd at DYRK1A [2] is less than 100 nM.
The compound `CC(=O)N1CCN(c2ccc(-c3ncnc4ccc(-c5ccnc(N)c5)cc34)cc2F)CC1` [Compound 34, 1-(4-(4-(6-(2-aminopyridin-4-yl)quinazolin-4-yl)-2-fluorophenyl)piperazin-1-yl)ethan-1-one] showed an EC50 in the assay on WNT signaling of 100 to 1000 nM. This compound also displayed a Kd on DYRK1A [2] of less than 100 nM.
Turning to `Nc1cc(-c2ccc3ncnc(-c4ccc(N5CCNCC5)c(F)c4)c3c2)ccn1` [Compound 35, 4-(4-(3-fluoro-4-(piperazin-1-yl)phenyl)quinazolin-6-yl)pyridin-2-amine], in the assay with WNT signaling, the EC50 fell in the range of 100 to 1000 nM. This compound yielded a Kd at DYRK1A [2] of less than 100 nM.
`CCN1CCN(c2ccc(-c3ncnc4ccc(-c5ccnc(N)c5)cc34)cc2F)CC1` [Compound 36, 4-(4-(4-(4-ethylpiperazin-1-yl)-3-fluorophenyl)quinazolin-6-yl)pyridin-2-amine] displayed an EC50 in the assay on WNT signaling of 100 to 1000 nM. On DYRK1A [2], this compound yielded a Kd of less than 100 nM.
`CC(=O)N1CCN(c2ccc(-c3ccnc4ccc(-c5ccnc(N)c5)cc34)cc2)CC1` [Compound 38, 1-(4-(4-(6-(2-aminopyridin-4-yl)quinolin-4-yl)phenyl)piperazin-1-yl)ethan-1-one]: in the assay with WNT signaling, the EC50 is less than 100 nM. The Kd at DYRK1A [2] is less than 100 nM.
As to `CC(=O)N1C[C@@H]2C[C@H]1CN2c1ccc(-c2ncnc3ccc(-c4ccnc(N)c4)cc23)cc1` [Compound 39, 1-((1S,4S)-5-(4-(6-(2-aminopyridin-4-yl)quinazolin-4-yl)phenyl)-2,5-diazabicyclo[2.2.1]heptan-2-yl)ethan-1-one], the EC50 in the assay on WNT signaling was 100 to 1000 nM. The compound also had a Kd on DYRK1A [2] of less than 100 nM.
`CC(=O)N1C[C@@H]2C[C@H]1CN2c1ccc(-c2ncnc3ccc(-c4ccnc(N)c4)cc23)cc1F` [Compound 40, 1-((1S,4S)-5-(4-(6-(2-aminopyridin-4-yl)quinazolin-4-yl)-2-fluorophenyl)-2,5-diazabicyclo[2.2.1]heptan-2-yl)ethan-1-one]: in the assay on WNT signaling, the EC50 is 100 to 1000 nM. At DYRK1A [2], this compound registered a Kd of less than 100 nM.
On to `Nc1cc(-c2ccc3ncnc(-c4ccc(N5CCN(CCO)CC5)cc4)c3c2)ccn1` [Compound 41, 2-(4-(4-(6-(2-aminopyridin-4-yl)quinazolin-4-yl)phenyl)piperazin-1-yl)ethan-1-ol], for which the EC50 in the assay on WNT signaling was less than 100 nM. In addition, on DYRK1A [2], the Kd is less than 100 nM.
For the compound `Nc1cc(-c2ccc3ncnc(-c4ccc(N5CCN(C6COC6)CC5)cc4)c3c2)ccn1` [Compound 42, 4-(4-(4-(4-(oxetan-3-yl)piperazin-1-yl)phenyl)quinazolin-6-yl)pyridin-2-amine], the EC50 in the assay with WNT signaling was less than 100 nM. The Kd on DYRK1A [2] is less than 100 nM.
`CN1[C@@H]2CC[C@H]1CN(c1ccc(-c3ncnc4ccc(-c5ccnc(N)c5)cc34)cc1F)C2` [Compound 43, 4-(4-(3-fluoro-4-((1R,5S)-8-methyl-3,8-diazabicyclo[3.2.1]octan-3-yl)phenyl)quinazolin-6-yl)pyridin-2-amine] came in with an EC50 in the assay with WNT signaling of 100 to 1000 nM. The Kd on DYRK1A [2] is less than 100 nM.
The matching figures for `CC(=O)N1CC2(C1)CN(c1ccc(-c3ncnc4ccc(-c5ccnc(N)c5)cc34)cc1)C2` [Compound 44, 41-(6-(4-(6-(2-aminopyridin-4-yl)quinazolin-4-yl)phenyl)-2,6-diazaspiro[3.3]heptan-2-yl)ethan-1-one]: 100 to 1000 nM and less than 100 nM.
In the case of `CC(C)(C)N1CCN(c2ccc(-c3ncnc4ccc(-c5ccnc(N)c5)cc34)cc2F)CC1` [Compound 45, 4-(4-(4-(4-(tert-butyl)piperazin-1-yl)-3-fluorophenyl)quinazolin-6-yl)pyridin-2-amine], the EC50 in the assay with WNT signaling fell in the range of 100 to 1000 nM. On DYRK1A [2], this compound showed a Kd of less than 100 nM.
For `CS(=O)(=O)N1CCN(c2ccc(-c3ncnc4ccc(-c5ccnc(N)c5)cc34)cc2F)CC1` [Compound 47, 4-(4-(3-fluoro-4-(4-(methylsulfonyl)piperazin-1-yl)phenyl)quinazolin-6-yl)pyridin-2-amine] the same measures were less than 100 nM and less than 100 nM.
In the assay on WNT signaling, `CC(C)CN1CCN(c2ccc(-c3ncnc4ccc(-c5ccnc(N)c5)cc34)cc2F)CC1` [Compound 48, 4-(4-(3-fluoro-4-(4-isobutylpiperazin-1-yl)phenyl)quinazolin-6-yl)pyridin-2-amine] displayed an EC50 of less than 100 nM. This compound also displayed a Kd on DYRK1A [2] of less than 100 nM.
As to `CN(C)C(=O)N1CCN(c2ccc(-c3ncnc4ccc(-c5ccnc(N)c5)cc34)cc2F)CC1` [Compound 49, 4-(4-(6-(2-aminopyridin-4-yl)quinazolin-4-yl)-2-fluorophenyl)-N,N-dimethylpiperazine-1-carboxamide], in the assay with WNT signaling, the EC50 is less than 100 nM. This compound also had a Kd at DYRK1A [2] of less than 100 nM.
`CC(C)N1CCN(c2ccc(-c3ncnc4ccc(-c5ccnc(N)c5)cc34)cc2F)CC1` [Compound 50, 4-(4-(3-fluoro-4-(4-isopropylpiperazin-1-yl)phenyl)quinazolin-6-yl)pyridin-2-amine]: in the assay with WNT signaling, the EC50 fell in the range of 100 to 1000 nM. At DYRK1A [2], this compound showed an equilibrium dissociation constant (Kd) of less than 100 nM.
The matching figures for `[2H]C([2H])([2H])N1CCN(c2ccc(-c3ncnc4ccc(-c5ccnc(N)c5)cc34)cc2F)CC1` [Compound 51, 4-(4-(3-fluoro-4-(4-(methyl-d3)piperazin-1-yl)phenyl)quinazolin-6-yl)pyridin-2-amine]: less than 100 nM and less than 100 nM.
Take `COC(=O)N1CCN(c2ccc(-c3ncnc4ccc(-c5ccnc(N)c5)cc34)cc2F)CC1` [Compound 52, methyl 4-(4-(6-(2-aminopyridin-4-yl)quinazolin-4-yl)-2-fluorophenyl)piperazine-1-carboxylate]: in the assay with WNT signaling, the EC50 is less than 100 nM. Also, the Kd at DYRK1A [2] was less than 100 nM.
In turn, `Nc1cc(-c2ccc3ncnc(-c4ccc(N5CCN(C(=O)C6CC6)CC5)c(F)c4)c3c2)ccn1` [Compound 53, (4-(4-(6-(2-aminopyridin-4-yl)quinazolin-4-yl)-2-fluorophenyl)piperazin-1-yl)(cyclopropyl)methanone] had an EC50 with WNT signaling of less than 100 nM. The Kd on DYRK1A [2] is less than 100 nM.
`COCCN1CCN(c2ccc(-c3ncnc4ccc(-c5ccnc(N)c5)cc34)cc2F)CC1` [Compound 54, 4-(4-(3-fluoro-4-(4-(2-methoxyethyl)piperazin-1-yl)phenyl)quinazolin-6-yl)pyridin-2-amine]: in the assay on WNT signaling, the EC50 is less than 100 nM. The same compound returned a Kd at DYRK1A [2] of less than 100 nM.
The compound `Nc1cc(-c2ccc3ncnc(-c4ccc(N5CCN(C6CCOCC6)CC5)c(F)c4)c3c2)ccn1` [Compound 55, 4-(4-(3-fluoro-4-(4-(tetrahydro-2H-pyran-4-yl)piperazin-1-yl)phenyl)quinazolin-6-yl)pyridin-2-amine] showed an EC50 in the assay with WNT signaling of less than 100 nM. The Kd on DYRK1A [2] was less than 100 nM.
`Nc1cc(-c2ccc3ncnc(-c4ccc(N5CCN(C6COC6)CC5)c(F)c4)c3c2)ccn1` [Compound 56, 4-(4-(3-fluoro-4-(4-(oxetan-3-yl)piperazin-1-yl)phenyl)quinazolin-6-yl)pyridin-2-amine] came in with an EC50 in the assay with WNT signaling of less than 100 nM. Moreover, the Kd on DYRK1A [2] is less than 100 nM.

For orientation: Kd means the concentration at which binding is half-saturated. What is called EC50 is the concentration giving half of the maximal effect. Read a high EC50 as a need for much substance.
